Data reported in paper PMC3443238, “Synthesis and Antiangiogenic Activity of N-Alkylated Levamisole Derivatives” (PLoS ONE, 2012).
Counter-ions that a name gives are not always drawn.

Tests used:
[1] = test system: human umbilical vein endothelial cells (HUVECs) in co-culture with normal human dermal fibroblasts (NHDF); assay: in vitro angiogenesis assay, HUVEC-NHDF co-culture, CD31 immunostaining; format: cell-based; conditions: for Grading / Morphology / Area % (percent of the area covered by HUVEC as observed by CD31 staining): 1 mM; for Area % (percent of the area covered by HUVEC as observed by CD31 staining): medium control 10.2, DMSO 8.4; for inhibition of angiogenesis compared with (S)-levamisole hydrochloride (1): Figure 5, Table 1
Protocol: The antiangiogenic effects of the compounds were determined in a previously developed assay, designed to evaluate the growth and differentiation of human umbilical vein endothelial cells (HUVECs) in co-culture with normal human dermal fibroblasts (NHDF). […] The cluster morphology known from (S)-levamisole, was also observed for tetramisole (2) (Figure 5B and Table 1), p-bromolevamisole (3) (Figure 5C and Table 1), and N-methyllevamisoles (7a, b), with the latter mentioned showing a slightly more pronounced effect (Figure 5E and F, Figure 6 A–D, Table 1). […] Compound 4 (Figure 5D and Table 1), on the other hand, inhibited the capillary network formation to give small cords exclusively, which is reminiscent of the effect of suramin (5) (Figure 5N and Table 1), another well-known angiogenesis inhibitor [44], [51].
Co-culture cell assays were performed according to a method described previously, [44]. Briefly, 10^3 NHDFs were cultured in each well of a 96-well microtiter plate in NHDF standard medium (100 μL, FGM-2 Bullet kit) at 37°C in an atmosphere containing 5% CO2. After 3 days the medium was removed and 10^3 HUVECs were seeded onto the NHDF in TFSM2 medium (135 μL). The samples of the individual compounds were prepared by weight and dissolved in a concentration of […] in DMSO, PBS, or Milli-Q water followed by pH adjustment, and sterile filtration through 0.22 μm filters. Medium, buffer controls or test samples of 15 µL were added to each well containing the HUVEC–NHDF co-culture and were incubated for 3 days. Experiments were repeated 2–4 times with identical results.
HUVEC and fibroblasts were stained with a CD31 antibody according to the method previously described, [44]. Briefly, the cells were washed with PBS, fixed with ethanol, blocked with TTN buffer, incubated with mouse anti-human CD31 diluted 1∶250 in TTN buffer, washed in TTN buffer and incubated with alkaline phosphatase-conjugated goat anti-mouse IgG diluted 1∶1000 in TTN buffer. Bound antibody was subsequently visualised with BCIP/NBT and inspected in an Olympus IX70 microscope and photographed with an Olympus DP12 digital camera (Magnification: 40x). Image analysis was carried out using the program AnalySIS (Soft Imaging Systems, Münster, Germany).

[2] = molecular target: T1, sirtuin 1 (SIRT1) (Homo sapiens, UniProt Q96EB6); assay: SIRT1 inhibition assay (Fluor-de-Lys fluorogenic); format: biochemical; conditions: for inhibition of SIRT1 deacetylase activity: standard fluorogenic assay in vitro
T1 construct: purchased Biomol BML-AK555
T1 sequence (Q96EB6 whole entry): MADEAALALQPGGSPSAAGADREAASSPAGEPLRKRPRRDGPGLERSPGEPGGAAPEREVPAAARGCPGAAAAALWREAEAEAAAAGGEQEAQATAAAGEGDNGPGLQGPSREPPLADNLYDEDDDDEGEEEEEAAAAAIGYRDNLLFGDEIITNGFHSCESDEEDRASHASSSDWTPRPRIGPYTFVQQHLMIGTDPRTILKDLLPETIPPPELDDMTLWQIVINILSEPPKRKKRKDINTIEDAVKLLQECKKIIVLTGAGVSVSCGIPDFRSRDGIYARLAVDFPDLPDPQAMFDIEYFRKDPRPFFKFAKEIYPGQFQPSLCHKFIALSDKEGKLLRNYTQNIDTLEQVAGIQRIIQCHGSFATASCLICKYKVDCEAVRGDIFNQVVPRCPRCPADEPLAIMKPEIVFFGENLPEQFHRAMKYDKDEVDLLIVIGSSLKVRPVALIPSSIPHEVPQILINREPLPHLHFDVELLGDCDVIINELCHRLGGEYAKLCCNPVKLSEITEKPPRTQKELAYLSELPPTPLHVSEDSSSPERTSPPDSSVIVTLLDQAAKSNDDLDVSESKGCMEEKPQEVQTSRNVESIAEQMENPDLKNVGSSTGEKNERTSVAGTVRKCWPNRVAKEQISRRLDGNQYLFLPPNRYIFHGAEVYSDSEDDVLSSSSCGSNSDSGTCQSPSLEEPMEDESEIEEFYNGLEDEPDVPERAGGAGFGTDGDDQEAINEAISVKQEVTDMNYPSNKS
Protocol: The assay was performed according to protocols provided by the supplier (Biomol, BML-AK555). Briefly, the dose–response experiments were performed in black low binding NUNC 96-well microtiter plates. The dilution series were prepared in Milli-Q water from 100 mM DMSO stock solutions. Fluor-de-Lys SIRT1 substrate (250 μM), NAD^+ ([…]), and SIRT1 (2 U/well) were incubated in SIRT assay buffer prepared as described in the Biomol product sheets [Tris/Cl (50 mM), NaCl (137 mM), KCl (2.7 mM), MgCl2 (1 mM), pH 8.0, 1 mg/mL bovine serum albumin] in the presence or absence of the appropriate dilution of compound 7a or suramin. After 1 hour at 37°C, nicotinamide (2 mM) and developer (50 μL, 2×) were added, and the assay development was allowed to proceed for 15–30 minutes at room temperature, before the plate was read using a Tecan plate reader with excitation at 360 nm and emission at 460 nm. Two individual assays were performed in duplicate.

[3] = molecular target: T2, human placenta alkaline phosphatase (HPAP) (Homo sapiens, UniProt P05187); assay: Alkaline phosphatase assay (p-nitrophenyl phosphate), human placenta enzyme; format: biochemical
T2 construct: alkaline phosphatase (0.01 U/mL) from human placenta or bovine kidneys; from tissue; host or cells: human placenta
T2 sequence (P05187 23-506 limits assumed): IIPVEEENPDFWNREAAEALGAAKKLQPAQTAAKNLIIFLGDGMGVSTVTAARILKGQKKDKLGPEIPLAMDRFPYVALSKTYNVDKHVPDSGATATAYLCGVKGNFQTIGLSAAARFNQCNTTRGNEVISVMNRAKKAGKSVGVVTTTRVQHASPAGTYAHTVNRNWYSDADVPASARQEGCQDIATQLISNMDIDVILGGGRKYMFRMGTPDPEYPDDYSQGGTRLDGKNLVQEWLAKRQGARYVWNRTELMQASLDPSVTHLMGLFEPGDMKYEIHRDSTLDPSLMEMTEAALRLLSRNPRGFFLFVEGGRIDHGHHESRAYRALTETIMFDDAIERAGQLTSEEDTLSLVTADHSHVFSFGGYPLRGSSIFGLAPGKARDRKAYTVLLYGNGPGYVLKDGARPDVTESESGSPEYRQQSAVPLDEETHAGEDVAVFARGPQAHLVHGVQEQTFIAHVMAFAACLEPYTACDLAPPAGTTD
Protocol: (§1) The levamisole derivatives were diluted to 2.5, 5 and 10 mM in DMSO. Samples (10 µL) and 90 µL solution of alkaline phosphatase (0.01 U/mL) from human placenta or bovine kidneys diluted in substrate buffer were added to a 96-well microtiter plate and incubated for 35 minutes at room temperature. Hereafter, 100 µL p-nitrophenyl phosphate (2 mg/mL) were added, and the plate was read at 405 nm with background subtraction at 650 nm on a Versamax Elisa reader (Molecular Devices, Sunnyvale, CA, USA) after 24 and 35 min. Results were obtained as the mean of double determinations. The EC50 values were read from the curve at half maximal absorbance.

[4] = molecular target: T1, sirtuin 1 (SIRT1); assay: SIRT1 activation assay (Fluor-de-Lys fluorogenic); format: biochemical; conditions: Figure 7
Protocol: The assay was essentially performed as described above for the deacetylase inhibition, but with different concentrations of enzyme and substrate [Fluor-de-Lys SIRT1 substrate (25 μM), NAD^+ (25 μM), SIRT1 (1 U/well)], and using resveratrol as positive control. Two individual assays were performed in duplicate.

[5] = molecular target: T3, bovine kidney tissue non-specific alkaline phosphatase (TNAP) (Bos taurus, UniProt P09487); assay: Alkaline phosphatase assay (p-nitrophenyl phosphate), bovine kidney enzyme; format: biochemical
T3 construct: alkaline phosphatase (0.01 U/mL) from human placenta or bovine kidneys; from tissue; host or cells: bovine kidneys
T3 sequence (P09487 18-499 limits assumed): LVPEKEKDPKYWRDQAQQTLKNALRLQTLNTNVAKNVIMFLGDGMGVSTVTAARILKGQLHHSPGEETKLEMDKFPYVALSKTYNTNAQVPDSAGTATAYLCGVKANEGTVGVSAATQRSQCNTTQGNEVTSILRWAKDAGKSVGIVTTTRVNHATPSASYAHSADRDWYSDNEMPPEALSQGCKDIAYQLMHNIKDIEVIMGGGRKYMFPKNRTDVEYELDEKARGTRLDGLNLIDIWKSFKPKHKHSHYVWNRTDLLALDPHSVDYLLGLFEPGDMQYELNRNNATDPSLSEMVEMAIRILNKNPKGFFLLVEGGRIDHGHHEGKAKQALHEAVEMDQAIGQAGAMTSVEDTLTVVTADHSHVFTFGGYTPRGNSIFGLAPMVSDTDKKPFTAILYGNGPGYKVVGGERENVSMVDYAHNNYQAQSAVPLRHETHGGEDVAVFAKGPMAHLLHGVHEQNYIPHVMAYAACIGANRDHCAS
Protocol: as §1

[6] = test system: tumor growth; conditions: 12 mg/kg in nude mice; cited from earlier work

SMILES | Grading [1] | Morphology [1] | Area % (percent of the area covered by HUVEC as observed by CD31 staining) [1] [%] | inhibition of angiogenesis compared with (S)-levamisole hydrochloride (1) [1] | concentration at which the cluster-inducing effect is already exerted (titration) ([1]; titration experiments, Figure 6F) [µM] | SIRT1 inhib. (1 μM) ([2]; 1 μM) | deacetylation compared to the control wells ([2]; at 10 μM and 100 μM, data not shown) | inhibition of SIRT1 deacetylase activity [2] | IC50 [3] [µM] | activation of SIRT1 compared to resveratrol [4] | IC50 [5] [µM] | tumor growth inhibition [6] | inhibition at 1 µM ([2]; read-out: SIRT1 inhib. (1 μM)) [%]
C[N+]1=C2SCCN2C[C@@H]1c1ccccc1 [Compound 7a, N-methyllevamisole triflate] | ++++ (clusters with area <4%) | Clusters | 2.8 | more potent than (S)-levamisole hydrochloride | 30 | Not active^b | elevated values of deacetylation | no inhibitory effect | > 2000 | ruled out interaction with this regulatory enzyme | 100 |  | 
c1ccc([C@H]2CN3CCSC3=N2)cc1 [Compound 1, (S)-levamisole hydrochloride, reference compound] | ++ (clusters with area >4%) | Clusters | 7.5 |  |  |  |  |  | 1100 |  | 600 | significant tumor growth inhibition | 
Brc1ccc([C@H]2CN3CCSC3=N2)cc1 [Compound 3, (–)-p-bromolevamisole oxalate, reference compound] | ++++ (clusters with area <4%) | Clusters | 3.4 | more potent than (S)-levamisole hydrochloride |  |  |  |  | 700 |  | > 2000 |  | 
Cc1ccc(C(=O)Nc2ccc(S(=O)(=O)O)c3cc(S(=O)(=O)O)cc(S(=O)(=O)O)c23)cc1NC(=O)c1cccc(NC(=O)Nc2cccc(C(=O)Nc3cc(C(=O)Nc4ccc(S(=O)(=O)O)c5cc(S(=O)(=O)O)cc(S(=O)(=O)O)c45)ccc3C)c2)c1 [Compound 5, suramin, reference compound] |  | Cords | 2.2 |  |  |  |  | potently inhibited SIRT1 |  |  | > 2000 |  | > 90
